This note sets out measurements from patent publication US10835513B2, “Methods and treatments for the learning and memory deficits associated with Noonan syndrome” (The Regents of the University of California, priority 2013, dated 2020).

The test system of test [1] is pyramidal neurons of Ptpn11^D61G/+ mice. Kind of test: Whole-cell voltage clamp mEPSC recordings in Ptpn11^D61G/+ mice. The conditions noted are these: SL327 1 μM. It counts as cell-based. The procedure: FIG. 4 are graphs showing PTPN11^D61G overexpression enhances excitatory synaptic function through increased Ras-Erk signaling. Panel a) AMPA receptor-mediated currents were measured at the peak of the currents at −65 mV, and NMDA currents were measured 50 ms after onset at +40 mV. The average of 15 traces is shown. Scale, 100 pA and 40 ms. Panel b) Group data showing the increased AMPA:NMDA current ratio in AAV-PTPN11^D61G mice (1.51±0.11, n=10 cells from 5 mice) compared with AAV-GFP mice (0.96±0.05, n=10 cells from 5 mice, t-test, ***P<0.001). […] Two-way ANOVA, interaction between viral treatment and drug, F(1, 31)=10.53, **P<0.01. […] Panel c) Paired-pulse facilitation ratio is unaffected by PTPN11^D61G. There was no significant difference at 25 ms or 50 ms intervals between two groups (AAV-PTPN11^D61G, n=12 cells from 5 mice; AAV-GFP, n=11 cells from 5 mice). Repeated-measures ANOVA, F(1, 21)=0.010, P=0.921. […]
(§1) Whole-cell voltage clamp recordings were done with an Axopatch 200B amplifier (Axon Instrument) as previously described^29, 30. […] For mEPSC recordings, voltage clamp recordings were performed at −60 mV in the presence of 100 μM picrotoxin and 1 μM TTX. mIPSCs were measured at +10 mV in the presence of 1 mM kynurenic acid and 1 μM TTX. […]

The test system of the next test is Pyramidal neurons in CA1. Kind of test: Whole-cell voltage clamp recordings (AMPA:NMDA ratio, mEPSC) in AAV-PTPN11^D61G-infected hippocampi. It counts as cell-based, mice. To be noted: SL327 1 μM; for AMPA:NMDA current ratio: 1 hr. The procedure:
FIG. 4 are graphs showing PTPN11^D61G overexpression enhances excitatory synaptic function through increased Ras-Erk signaling. Panel a) AMPA receptor-mediated currents were measured at the peak of the currents at −65 mV, and NMDA currents were measured 50 ms after onset at +40 mV. The average of 15 traces is shown. Scale, 100 pA and 40 ms. Panel b) Group data showing the increased AMPA:NMDA current ratio in AAV-PTPN11^D61G mice (1.51±0.11, n=10 cells from 5 mice) compared with AAV-GFP mice (0.96±0.05, n=10 cells from 5 mice, t-test, ***P<0.001). […] Two-way ANOVA, interaction between viral treatment and drug, F(1, 31)=10.53, **P<0.01. […] Panel c) Paired-pulse facilitation ratio is unaffected by PTPN11^D61G. There was no significant difference at 25 ms or 50 ms intervals between two groups (AAV-PTPN11^D61G, n=12 cells from 5 mice; AAV-GFP, n=11 cells from 5 mice). Repeated-measures ANOVA, F(1, 21)=0.010, P=0.921. Panel d) PTPN11^D61G overexpression increases excitatory synaptic function. mEPSC frequency was increased in AAV-PTPN11^D61G-infected mice compared with AAV-GFP mice, and was reversed by SL327 (1 μM) treatment without affecting on the AAV-GFP group. mEPSC frequency: GFP/Veh, 1.50±0.53, n=9; PTPN11^D61G/Veh, 4.64±0.94, n=9; GFP/SL327, 1.28±0.19, n=7; PTPN11^D61G/SL327, 2.02±0.32, n=9; Two-way ANOVA with viral treatment as between-subjects factor, F(1, 30)=10.31, **P<0.01. […] Two-way ANOVA with viral treatment as between-subjects factor, F(1, 30)=0.470, P=0.498. Scale, 20 pA and 200 ms. Panel e) Excitatory synaptic function is increased in Ptpn11^D61G/+ mice and reversed by SL327 treatment. mEPSC frequency was increased in Ptpn11^D61G/+ mice compared with WT littermates, and was reversed by SL327 (1 μM) treatment. mEPSC frequency: WT/Veh, 2.68±0.55, n=9; Ptpn11^D61G/+/Veh, 5.71±0.56, n=10; WT/SL327, 2.46±0.63, n=9; Ptpn11^D61G/+/SL327, 2.87±1.02, n=9; Two-way ANOVA with genotype as between-subjects factor, F(1, 33)=5.914, *P<0.05. […] Two-way ANOVA with genotype as between-subjects factor, F(1, 33)=0.418, P=0.839. Scale, 20 pA and 200 ms.
We examined the electrophysiological mechanism underlying the LTP impairment in AAV-PTPN11^D61G-infected mice. Increases in Ras signaling are known to facilitate AMPA receptor trafficking to the surface membrane^20. For example, expression of constitutively active Ras enhances AMPA receptor-mediated currents in hippocampal neurons and impairs LTP^20. […]
as §1

With `N#C/C(=C(/N)Sc1ccc(N)cc1)c1ccccc1C(F)(F)F` [SL327], the mEPSC frequency in test [1] (Ptpn11^D61G/+ mice) amounted to 2.87±1.02; in test [1] (WT littermates), 2.46±0.63; in the test with Pyramidal neurons in CA1 (AAV-GFP mice) it was 1.28±0.19; with Pyramidal neurons in CA1 (AAV-PTPN11^D61G-infected mice), 2.02±0.32. Also, the figures for the “AMPA:NMDA current ratio” value with Pyramidal neurons in CA1 (GFP group) and with Pyramidal neurons in CA1 (PTPN11^D61G group) were 1.08±0.07 and 1.07±0.11, respectively.
